Experimental data from paper PMC7649969, “Pyrazolyl-pyrimidones inhibit the function of human solute carrier protein SLC11A2 (hDMT1) by metal chelation” (RSC Medicinal Chemistry, 2020).
Entries after “also recorded” stand apart in the source; their conditions may differ. Like-named read-outs stand apart in the source and are kept apart here.

Experiments:
hDMT1 (SLC11A2) = molecular target: T1, hDMT1 (SLC11A2) (Homo sapiens, UniProt P49281); assay: radioactive iron uptake assay in HEK293 cells stably overexpressing hDMT1; assay type: cell-based; conditions: for mode of inhibition: 55Fe2+ uptake kinetics; for Ki: [Fe^2+] → 0, Dixon plot analysis, read-out: inhibition constant Ki; for Ligand efficiency: from IC50 of radioactive iron uptake in HEK293-hDMT1; for IC50: radioactive iron 1 μM, 15 min incubation, extracellular pH 5.5, HEK293 stably overexpressing hDMT1; for inhibition constant Kii: saturating iron, 1/Vmax vs [I]
T1 construct: DsRED; expressed in transfected cells
T1 sequence (P49281 1-568): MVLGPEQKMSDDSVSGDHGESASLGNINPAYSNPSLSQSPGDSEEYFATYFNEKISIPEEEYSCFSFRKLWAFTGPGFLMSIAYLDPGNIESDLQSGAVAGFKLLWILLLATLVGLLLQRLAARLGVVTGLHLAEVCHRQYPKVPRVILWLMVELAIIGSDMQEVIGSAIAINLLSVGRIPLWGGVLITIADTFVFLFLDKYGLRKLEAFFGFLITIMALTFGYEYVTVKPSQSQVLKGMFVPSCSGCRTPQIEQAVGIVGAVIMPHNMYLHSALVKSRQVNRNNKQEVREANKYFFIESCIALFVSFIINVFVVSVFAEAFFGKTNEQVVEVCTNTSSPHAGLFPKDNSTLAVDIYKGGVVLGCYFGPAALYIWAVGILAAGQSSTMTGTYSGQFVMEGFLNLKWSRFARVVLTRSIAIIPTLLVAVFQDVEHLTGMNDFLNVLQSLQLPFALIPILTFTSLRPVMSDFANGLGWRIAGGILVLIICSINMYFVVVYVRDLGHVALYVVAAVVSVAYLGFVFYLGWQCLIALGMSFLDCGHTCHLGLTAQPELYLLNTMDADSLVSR

[1] = iron precipitation assay (removal of radioactive 55Fe2+ from buffer); assay type: physicochemical; conditions: compound 10 μM, 15 min
Protocol: Fig. 4 Chemical evidence of divalent metal complexation by hDMT1 inhibitors. (a and b) Isothermal titration calorimetry of pyrazole 13 (0.4 mM) with Cd^2+ (5 mM) in aqueous buffer pH 7.4 and pH 5.5, 25 °C. (c) Calcein quenching assay in aqueous buffer pH 5.5 (2 μM Fe^2+, 10 μM ligand, 1 μM calcein). Fe^2+ (2 μM), ascorbic acid (200 μM) and compounds (20 μM) were incubated for 5 min before the addition of calcein (1 μM) in Krebs buffer at pH 5.5. Fluorescence was measured after 5 min incubation. (d and e) Removal of radioactive ^55Fe^2+ from buffers upon incubation with ligands and centrifugation. ^55Fe^2+ (1 μM) precipitation upon interaction with the indicated compounds (10 μM). ^55Fe^2+ and the indicated compounds were incubated for 15 min, then, an aliquot of the solution supernatant was taken for determination of the remaining ^55Fe^2+. Data was normalized to the values obtained for the Fe^2+ + DMSO (0.1%) solution and represented as mean ± SD (N = 15; 2 independent experiments). Statistical differences were assessed using T-test or Mann–Whitney U test (Fe^2++ DMSO vs. each compound); p > 0.05 = ns; p < 0.05 = *; p < 0.001 = ***. […]
Iron precipitation assay. Polypropylene tubes containing uptake solution (140 mM NaCl, 2.5 mM KCl, 1 mM CaCl2, 1 mM MgCl2, 1.2 mM K2HPO4, 10 mM glucose, 5 mM HEPES, 5 mM MES, pH 7.4) supplemented with 1 µM Ferrous iron (Fe2+), 100 µM Ascorbic Acid, radiolabelled 55Fe2+ (0.5 µCi/mL) and 10 µM of the different compounds under study were incubated for 15 minutes at RT. Then, 10 µL aliquots from each tube were transferred in quadruplicate to a clear bottom, white -well, poly-D-lysine coated 96-well plate (Corning), and 55Fe2+ content was determined by scintillation counting as above described. […]
Statistics. Except when representative experiments are presented, results are shown as Mean ± Standard deviation (SD). Parametric distribution of the averaged values was assessed by […]

[2] = acid-base titration with NaOH; assay type: physicochemical; conditions: Milli-Q water with 10% DMSO, ~2 mM compound
Protocol: Fig. 6 (a) Acid–base titration of 3, 5, 13 and neutral and basic forms of 3, 5, 13. (20 μmol of compound in 10 mL (10% DMSO, ∼2 mM), 3 and 5 were acidified with HCl (50 μmol)). (b) Acid-base equilibria for inhibitors 3, 5 and 13 highlighting potentially metal chelating nitrogen atoms in red. (c) TMAP of our inhibitors combined with 169 pyrazolyl-pyrimidones and 1717 pyrazolyl-pyridines found in ChEMBL, color coded by source: cyan = pyrazolyl-pyridines from ChEMBL, blue = pyrazolyl-pyrimidones from ChEMBL, red = this work. Insert: Close-up view around pyrazolyl-pyrimidones color-coded by target class: red = transporter, cyan = enzyme, magenta = unclassified protein, grey = unclassified target. The interactive TMAP including further color-codes (target classes, QED, etc.) is accessible at:; http://tm.gdb.tools/dmt1_inhibitors/pyrimidones_pyridines/ […]
Milli-Q water, 1 mL DMSO and 0.5 mL HCl 0.1 M (Final concentration of 2 mM). Compound
13 (HCl salt, 200 µL, 0.1 M in DMSO) was dissolved in 0.8 mL DMSO and […] Milli-Q
water. Then, a solution of 0.1 M NaOH was added by steps of 2 µL with a Dosimat plus
(Metrohm, Zofingen, Switzerland) and pH was measured using a 692 pH/ion meter (Metrohm).

| mode of inhibition (hDMT1 (SLC11A2)) | Ki (hDMT1 (SLC11A2)) [nM] | Ligand efficiency (hDMT1 (SLC11A2)) | IC50 (hDMT1 (SLC11A2)) [nM] | potency weaker than originally reported value based on a calcein assay (hDMT1 (SLC11A2); radioactive iron uptake vs reported calcein assay) [fold] | inhibition constant Kii (hDMT1 (SLC11A2)) [µM] | precipitation of Fe2+ ([1]; pH 7.4, 55Fe2+ 1 μM) | pKa ([2]; read-out: pKa1) | pKa ([2]; read-out: pKa2) | improvement of IC50 over initial inhibitor 5 (hDMT1 (SLC11A2); radioactive iron uptake) [fold] | SMILES | precipitation of Fe2+ ([1]; pH 5.5, 55Fe2+ 1 μM) |
| --- | --- | --- | --- | --- | --- | --- | --- | --- | --- | --- | --- |
| competitive inhibition | 1400 | 0.35 | 1760 ± 60 | 5 | 15.6 | had no effect |  |  |  | N=C(N)SCc1cccc2c1oc1c(CSC(=N)N)cccc12 [Compound 1, reference compound] |  |
|  |  |  |  |  |  | induced significant precipitation | 3.3 | 6.7 |  | Cc1nn(-c2ccccn2)c(O)c1C(=O)Nc1cccc(C(F)(F)F)c1 [Compound 3, reference compound] | only observed precipitation with the literature inhibitor 3; also recorded: high precipitation of iron |
|  |  |  | 13100 ± 700 |  |  | had no effect | 3.6 | 6.5 |  | Cc1cc(O)nc(-n2nc(C)cc2C)n1 [Compound 5] |  |
| non-competitive inhibitor | 2000 | 0.45 | 1100 ± 10 |  | 1.7 | induced significant precipitation | 3.3 | 7 | 10 | Cc1cc(=O)[nH]c(-n2nc3c(c2C)CCCC3)n1 [Compound 13] |  |

| SMILES | mode of inhibition (hDMT1 (SLC11A2)) | Ki (hDMT1 (SLC11A2)) [nM] | Ligand efficiency (hDMT1 (SLC11A2)) | IC50 (hDMT1 (SLC11A2)) [nM] | potency weaker than originally reported value based on a calcein assay (hDMT1 (SLC11A2); radioactive iron uptake vs reported calcein assay) [fold] | inhibition constant Kii (hDMT1 (SLC11A2)) [µM] | precipitation of Fe2+ ([1]; pH 7.4, 55Fe2+ 1 μM) | pKa ([2]; read-out: pKa1) | pKa ([2]; read-out: pKa2) | improvement of IC50 over initial inhibitor 5 (hDMT1 (SLC11A2); radioactive iron uptake) [fold] | precipitation of Fe2+ ([1]; pH 5.5, 55Fe2+ 1 μM) |
| --- | --- | --- | --- | --- | --- | --- | --- | --- | --- | --- | --- |
| c1ccc(-c2ccccn2)nc1 [bipyridine] |  |  |  |  |  |  | had no effect |  |  |  |  |
